In article PMC3024946, “Hydroxyproline-containing collagen analogs trigger the release and activation of collagen-sequestered proMMP-2 by competition with prodomain-derived peptide P33-42” (Fibrogenesis & Tissue Repair, 2011):
Entries after “also recorded” stand apart in the source; their conditions may differ.

Key:
[1] = tested on: Cy2-proMMP-2 bound to cirrhotic human liver tissue; test: Release / prevention of binding of Cy2-proMMP-2 in cirrhotic liver sections; settings: 10-fold molar excess, fluorescence microscopy
Method: ProMMP-2 was labeled using the FluoroLink Cy2 Labeling Kit according to the manufacturer's instructions (Amersham Biosciences, Freiburg, Germany). Unbound fluorescent dye was removed by ultrafiltration (Nanosep, Lund, Sweden), and labeling success was monitored using a fluorescence microplate reader (λex/em, 489/506 nm). Serial cirrhotic human liver sections were covered with 1.2 μg/ml Cy2-proMMP-2 in 50 mM Tris·HCl, pH 7.4, containing 1 mM CaCl2 or with buffer alone, and were incubated in a dark humidified chamber for 24 h at 4°C. To study effects of (GPO)10, a 10-fold molar excess in relation to proMMP-2 was added to slides prior to or after Cy2-proMMP-2 binding. Slides were washed with PBS, air-dried, and rinsed with deionized water. Bound Cy2-proMMP-2 was detected by fluorescence microscopy (Olympus, Hamburg, Germany).

proMMP-2 / CI [2] = target: T1, proMMP-2 / CI (Homo sapiens, UniProt P08253); test: SPR, competition of proMMP-2 binding to CI, MMP activity buffer; settings: proMMP-2 (25-150 nM), 10-fold molar excess, no inhibitor
T1 construct: prodomain-containing proMMP-2 or proMMP-9; purchased Invitek
T1 sequence (P08253 30-660 limits assumed): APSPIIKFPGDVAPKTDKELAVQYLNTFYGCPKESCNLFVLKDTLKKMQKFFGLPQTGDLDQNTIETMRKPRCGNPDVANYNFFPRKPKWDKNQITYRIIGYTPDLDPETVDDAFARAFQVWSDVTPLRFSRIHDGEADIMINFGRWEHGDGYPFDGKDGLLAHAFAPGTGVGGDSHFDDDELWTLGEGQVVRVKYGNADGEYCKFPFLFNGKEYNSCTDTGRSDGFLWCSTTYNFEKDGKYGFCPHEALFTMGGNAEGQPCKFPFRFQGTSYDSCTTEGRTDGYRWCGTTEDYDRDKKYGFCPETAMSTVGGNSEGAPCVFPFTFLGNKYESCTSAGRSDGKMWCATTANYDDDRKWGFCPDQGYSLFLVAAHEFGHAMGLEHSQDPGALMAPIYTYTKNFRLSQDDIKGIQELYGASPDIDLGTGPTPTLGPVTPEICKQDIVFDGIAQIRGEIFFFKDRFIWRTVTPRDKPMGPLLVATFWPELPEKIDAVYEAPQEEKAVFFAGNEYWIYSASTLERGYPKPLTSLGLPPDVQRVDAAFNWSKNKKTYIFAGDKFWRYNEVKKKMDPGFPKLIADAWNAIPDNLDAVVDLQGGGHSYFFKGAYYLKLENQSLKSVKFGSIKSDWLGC
Method: (§1) Sensor chip preparations and SPR measurements were performed using a BiacoreX device and the Bia-evaluation software (version 3.2; Biacore, Uppsala, Sweden). The pepsin-resistant triple-helical part of human fibrillar CI (100 μg/ml) in 10 mM acetate coupling buffer, pH 4.8, was immobilized to a dextran matrix-sensor chip at a flow rate of 5 μl/min, resulting in 5,500 resonance units from CI covalently linked via its primary amino groups. The control flow cell was prepared using the coupling buffer without CI. Surfaces were activated and blocked as described previously. […] The effects of (GPO)10, GAP, (POG)5, (GPP)10 and P33-42 on MMP-2 and MMP-9 binding to CI and their enzymatic activity were determined by adding the binding competitors to the (pro- and act)MMP-2 and MMP-9 solution in 10- to 150-fold molar excesses. Effects independent of MMP-2 and MMP-9 activity were monitored in the presence of Ro 28-2653 (1 μM) during SPR analysis. […] Kinetic parameters were analyzed using the 1:1 binding model with drifting baseline and subtraction of the control flow cell binding from sensorgrams obtained with immobilized CI. Binding constants (Kd) were calculated from the association (ka) and dissociation rates (kd) obtained from individual binding curves at different concentrations. […]

ProMMP-2 [3] = test: Fluorogenic short-substrate assay, activation of proMMP-2; assay type: biochemical, human; settings: 10-fold excess; 50 ng proMMP-2; 800 nM MCA-Pro-Leu-Gly-Leu-Dnp-Dap-Ala-Arg-NH2; 37°C; on BSA or CI
Method: (§2) Enzymatic activities of MMPs were studied spectrofluorimetrically by cleavage of fluorogenic substrates in MMP activity buffer within 2 to 5 h. For gelatinases 800 nM MCA-Pro-Leu-Gly-Leu-Dnp-Dap-Ala-Arg-NH2 (λex/em 328/393 nm; Bachem, Bubendorf, Switzerland) or 10 μg/ml DQ-gelatine were used, according to the method described by Knight et al. for collagenases 800 nM MCA-Pro-Cha-Gly-Nva-His-Ala-Dpa-NH2 (λex/em 280/360 nm; Anaspec, San José, CA, USA). In some experiments, proMMP-2 was fully activated in the presence of 1 mM APMA prior to the kinetic measurements. A quantity of 50 ng pro- or actMMP-2 alone or mixed with 10- to 150-fold molar excesses of (GPO)10, GAP, P33-42 or mixtures of (GPO)10 and P33-42, were added to CI-coated, BSA-coated (1 μg/well both) or uncoated wells containing 150 μl of the respective substrate solution. The peptide P33-42 was purchased from the Institute of Biochemistry (Humboldt-University, Berlin, Germany). The influence of CI on MMP-2 enzymatic activity against the quenched fluorescent substrate could be excluded. Background subtraction (measurement without MMPs) was applied to all curves. All experiments were performed with a fluorescence microplate reader (Molecular Devices, Sunnyvale, CA, USA) and black 96-well microtiter plates with a clear bottom (Greiner bio-one, Frickenhausen, Germany).

proMMP-9 / CI = target: T2, proMMP-9 / CI (Homo sapiens, UniProt P14780); test: SPR, competition of proMMP-9 binding to CI, nonactivating buffer
T2 construct: prodomain-containing proMMP-2 or proMMP-9; purchased Invitek
Method: as §1

proMMP-2 / CI [4] = target: T1, proMMP-2 / CI; test: SPR, competition of proMMP-2 binding to CI, nonactivating buffer
Method: as §1

ProMMP-2 [5] = test: DQ-gelatine degradation assay with MMP-2; assay type: biochemical, human; settings: 5 h at 25°C
Method: as §2

T2 sequence (P14780 20-707 limits assumed): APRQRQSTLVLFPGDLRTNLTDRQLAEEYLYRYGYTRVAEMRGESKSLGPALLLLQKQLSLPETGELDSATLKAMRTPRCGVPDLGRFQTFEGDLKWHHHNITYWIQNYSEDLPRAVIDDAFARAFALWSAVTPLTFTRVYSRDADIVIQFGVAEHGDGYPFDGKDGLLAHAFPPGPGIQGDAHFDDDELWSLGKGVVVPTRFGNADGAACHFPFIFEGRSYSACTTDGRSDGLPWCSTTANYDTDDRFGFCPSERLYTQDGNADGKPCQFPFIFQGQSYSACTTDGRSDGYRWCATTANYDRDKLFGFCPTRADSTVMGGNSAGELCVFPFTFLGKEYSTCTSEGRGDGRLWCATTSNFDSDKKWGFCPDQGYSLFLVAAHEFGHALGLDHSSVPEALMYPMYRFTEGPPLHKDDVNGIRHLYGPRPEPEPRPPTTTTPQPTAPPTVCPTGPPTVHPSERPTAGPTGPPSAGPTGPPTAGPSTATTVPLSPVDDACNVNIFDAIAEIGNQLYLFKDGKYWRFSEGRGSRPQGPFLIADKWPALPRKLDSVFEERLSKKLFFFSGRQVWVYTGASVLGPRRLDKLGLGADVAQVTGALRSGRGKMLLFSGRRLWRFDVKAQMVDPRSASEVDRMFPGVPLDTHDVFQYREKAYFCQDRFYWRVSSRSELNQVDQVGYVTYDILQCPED

H-Gly-Cys-Hyp-(Gly-Pro-Hyp)10-Gly-Cys-Hyp-Gly-NH2 [(GPO)10, triple-helical Hyp-containing collagen analog]
prevention of binding of Cy2-proMMP-2 ([1]; coincubation): prevented gelatinase binding
release of bound Cy2-proMMP-2 ([1]; subsequent treatment): promoted effective release of the sequestered enzyme
effect on SPR signal on CI (proMMP-2 / CI [2]): reduction in resonance units below baseline levels
activation of proMMP-2 (ProMMP-2 [3]): resulted in the same plateau activity as actMMP-2 without (GPO)10
Off rate (proMMP-9 / CI; proMMP-9 (100 nM) binding to CI with 10× (GPO)10, PBS, 0.05% Tween 20): 0.22 s⁻¹
effect on binding to CI (proMMP-9 / CI; proMMP-9, 10-fold molar excess): more pronounced effects
Off rate (proMMP-2 / CI [4]; proMMP-2 (100 nM) binding to CI with 10× (GPO)10, PBS, 0.05% Tween 20): 0.37 s⁻¹
effect on binding to CI (proMMP-2 / CI [4]; proMMP-2, 10-fold molar excess): only slightly impaired
DQ-gelatine cleavage by proMMP-2 (ProMMP-2 [5]; 50- to 100-fold molar excesses): significantly enhanced
DQ-gelatine cleavage by proMMP-2 (ProMMP-2 [5]; 150-fold molar excess): shift from an active MMP-2 to an enzymatically blocked enzyme; also recorded: reduction of MMP-2 gelatinolytic activity
